Test results from the NIST ThermoML archive (doi:10.1016/j.jct.2018.02.021).
“And” between values parts separate entries of the source, which are not always exact repeats. Equal values may be shown once.

Assay: xn = mol fraction of the nth substance listed
Settings: Gas, Buoyancy - hydrostatic balance with magnetic suspension - two sinkers

CC [ethane] + O=C=O
Settings | mass density
273.15 K, 531.09 kPa, x1 = 0.2003 | 10.008 kg/m3
273.15 K, 531.52 kPa, x1 = 0.2003 | 10.0165 kg/m3
273.15 K, 531.92 kPa, x1 = 0.2003 | 10.0243 kg/m3
273.15 K, 534.39 kPa, x1 = 0.2003 | 10.0711 kg/m3
273.15 K, 534.79 kPa, x1 = 0.2003 | 10.0789 kg/m3
273.15 K, 535.19 kPa, x1 = 0.2003 | 10.087 kg/m3
273.15 K, 535.63 kPa, x1 = 0.2003 | 10.0955 kg/m3
273.15 K, 544.52 kPa, x1 = 0.2003 | 10.2735 kg/m3
273.15 K, 544.86 kPa, x1 = 0.2003 | 10.2801 kg/m3
273.15 K, 548.14 kPa, x1 = 0.4995 | 9.33133 kg/m3
273.15 K, 551.38 kPa, x1 = 0.05023 | 10.9267 kg/m3
273.15 K, 1023.8 kPa, x1 = 0.2003 | 20.0462 kg/m3
273.15 K, 1024.6 kPa, x1 = 0.2003 | 20.0627 kg/m3
273.15 K, 1025.4 kPa, x1 = 0.2003 | 20.0779 kg/m3
273.15 K, 1026.6 kPa, x1 = 0.2003 | 20.1024 kg/m3
273.15 K, 1027 kPa, x1 = 0.2003 | 20.1108 kg/m3
273.15 K, 1027.6 kPa, x1 = 0.2003 | 20.1219 kg/m3
273.15 K, 1037.4 kPa, x1 = 0.2003 | 20.3384 kg/m3
273.15 K, 1037.8 kPa, x1 = 0.2003 | 20.347 kg/m3
273.15 K, 1051.5 kPa, x1 = 0.4995 | 18.6959 kg/m3
273.15 K, 1075.8 kPa, x1 = 0.05023 | 22.195 kg/m3
273.15 K, 2035.1 kPa, x1 = 0.2003 | 43.7258 kg/m3
273.15 K, 2035.5 kPa, x1 = 0.2003 | 43.7371 kg/m3
273.15 K, 2050.8 kPa, x1 = 0.4995 | 40.4917 kg/m3
273.15 K, 2062 kPa, x1 = 0.05023 | 46.5645 kg/m3
273.15 K, 2554 kPa, x1 = 0.4995 | 53.9302 kg/m3
273.15 K, 2562.2 kPa, x1 = 0.05023 | 61.2253 kg/m3
273.15 K, 3037.3 kPa, x1 = 0.2003 | 73.9637 kg/m3
273.15 K, 3037.9 kPa, x1 = 0.2003 | 73.9838 kg/m3
273.15 K, 3053.1 kPa, x1 = 0.05023 | 77.9966 kg/m3
273.15 K, 3054.4 kPa, x1 = 0.4995 | 70.1143 kg/m3
273.15 K, 3480.6 kPa, x1 = 0.2003 | 91.4391 kg/m3 and 91.4331 kg/m3
273.15 K, 3488.2 kPa, x1 = 0.2003 | 91.7868 kg/m3
273.15 K, 3488.7 kPa, x1 = 0.2003 | 91.8117 kg/m3
273.15 K, 3489.4 kPa, x1 = 0.2003 | 91.84 kg/m3
273.15 K, 3507.2 kPa, x1 = 0.2003 | 92.6352 kg/m3 and 92.638 kg/m3
283.15 K, 518.17 kPa, x1 = 0.2003 | 9.36982 kg/m3
283.15 K, 519.18 kPa, x1 = 0.05023 | 9.86023 kg/m3
283.15 K, 538.66 kPa, x1 = 0.4995 | 8.79999 kg/m3
283.15 K, 1030 kPa, x1 = 0.05023 | 20.2371 kg/m3
283.15 K, 1031.7 kPa, x1 = 0.4995 | 17.4887 kg/m3
283.15 K, 1041.5 kPa, x1 = 0.2003 | 19.5141 kg/m3
283.15 K, 2018.1 kPa, x1 = 0.4995 | 37.3012 kg/m3
283.15 K, 2025.9 kPa, x1 = 0.05023 | 42.9555 kg/m3
283.15 K, 2038.1 kPa, x1 = 0.2003 | 41.2701 kg/m3
283.15 K, 3029.9 kPa, x1 = 0.05023 | 70.7861 kg/m3
283.15 K, 3032.8 kPa, x1 = 0.4995 | 62.9635 kg/m3
283.15 K, 3042.8 kPa, x1 = 0.2003 | 68.0188 kg/m3
283.15 K, 3546.2 kPa, x1 = 0.05023 | 88.2259 kg/m3
283.15 K, 3550.3 kPa, x1 = 0.4995 | 79.7057 kg/m3
283.15 K, 4013.1 kPa, x1 = 0.4995 | 98.6426 kg/m3
283.15 K, 4045.7 kPa, x1 = 0.05023 | 108.543 kg/m3
283.15 K, 4069.8 kPa, x1 = 0.2003 | 104.912 kg/m3
283.15 K, 4501.8 kPa, x1 = 0.2003 | 126.607 kg/m3
283.15 K, 4602.7 kPa, x1 = 0.2003 | 132.714 kg/m3
283.15 K, 4730.9 kPa, x1 = 0.2003 | 141.359 kg/m3
283.15 K, 4821.7 kPa, x1 = 0.2003 | 148.288 kg/m3
293.15 K, 519.57 kPa, x1 = 0.2003 | 9.04307 kg/m3
293.15 K, 525.66 kPa, x1 = 0.4995 | 8.25163 kg/m3
293.15 K, 1026.1 kPa, x1 = 0.4995 | 16.6496 kg/m3
293.15 K, 1034.3 kPa, x1 = 0.2003 | 18.5618 kg/m3
293.15 K, 2026.9 kPa, x1 = 0.2003 | 38.8656 kg/m3
293.15 K, 2045.8 kPa, x1 = 0.4995 | 35.8484 kg/m3
293.15 K, 3032.6 kPa, x1 = 0.4995 | 58.2406 kg/m3
293.15 K, 3042.1 kPa, x1 = 0.2003 | 63.2873 kg/m3
293.15 K, 4051.5 kPa, x1 = 0.4995 | 88.2376 kg/m3
293.15 K, 4055.4 kPa, x1 = 0.2003 | 93.5899 kg/m3
293.15 K, 4555.2 kPa, x1 = 0.4995 | 107.86 kg/m3
293.15 K, 5019.3 kPa, x1 = 0.4995 | 131.598 kg/m3
293.15 K, 5020.8 kPa, x1 = 0.2003 | 133.141 kg/m3
308.15 K, 542.53 kPa, x1 = 0.4995 | 8.06912 kg/m3
308.15 K, 1040.9 kPa, x1 = 0.4995 | 15.9143 kg/m3
308.15 K, 2034.5 kPa, x1 = 0.4995 | 33.0477 kg/m3
308.15 K, 3050.6 kPa, x1 = 0.4995 | 53.2563 kg/m3
308.15 K, 4038.3 kPa, x1 = 0.4995 | 76.6788 kg/m3
308.15 K, 4551.5 kPa, x1 = 0.4995 | 90.9786 kg/m3
308.15 K, 5013.9 kPa, x1 = 0.4995 | 105.639 kg/m3
323.15 K, 524.46 kPa, x1 = 0.05023 | 8.6271 kg/m3
323.15 K, 543.73 kPa, x1 = 0.4995 | 7.68033 kg/m3
323.15 K, 1024.4 kPa, x1 = 0.4995 | 14.7964 kg/m3
323.15 K, 1024.9 kPa, x1 = 0.05023 | 17.2074 kg/m3
323.15 K, 2039.4 kPa, x1 = 0.05023 | 35.7934 kg/m3
323.15 K, 2040.2 kPa, x1 = 0.4995 | 31.0101 kg/m3
323.15 K, 3036.4 kPa, x1 = 0.4995 | 48.806 kg/m3
323.15 K, 3038.7 kPa, x1 = 0.05023 | 55.972 kg/m3
323.15 K, 4027.4 kPa, x1 = 0.4995 | 68.9564 kg/m3
323.15 K, 4049.9 kPa, x1 = 0.05023 | 78.8065 kg/m3
323.15 K, 5024.6 kPa, x1 = 0.4995 | 92.5708 kg/m3
323.15 K, 5061.4 kPa, x1 = 0.05023 | 104.85 kg/m3
323.15 K, 5982.2 kPa, x1 = 0.4995 | 119.675 kg/m3
323.15 K, 6013.8 kPa, x1 = 0.05023 | 133.393 kg/m3
